≈ marks a conversion by molar mass, not a printed value. Read-outs that look alike come from different tables or passages of the source.
Key:
Escherichia coli = assay: Spontaneous mutation frequency and mutation prevention concentration (MPC); format: cell-based
From the text: (§1) As used herein, “spontaneous mutation frequency” refers to the rate at which mutations arise in a bacterium that can lead to resistance to develop to an antimicrobial agent. “Mutation prevention concentration” or “MPC” refers to the lowest concentration of antimicrobial agent above which the selective proliferation of resistant mutants is expected to occur only rarely.

S. agalactiae = assay: as above; format: cell-based; conditions: S. agalactiae ATCC 13813
From the text: as §1

S. pyogenes = assay: as above; format: cell-based; conditions: S. pyogenes ATCC 49399
From the text: as §1

B. vulgatus = assay: as above; format: cell-based; conditions: B. vulgatus ATCC 8482
From the text: as §1

[1] = tested on: E. coli (ATCC 25922, ATCC 35218, MMX 1312); assay: Agar dilution MIC (spontaneous mutation study; strain in conditions); format: cell-based, Escherichia coli
Bacteroides fragilis = assay: Agar dilution MIC, 30 clinical isolates; format: cell-based
[2] = tested on: E. coli spontaneous mutants; assay: Broth microdilution MIC of spontaneous mutants; format: cell-based, Escherichia coli
Procedure, shortened: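 Spontaneous mutants from drug selection plates were tested by CLSI broth microdilution in MHB II with two-fold serial drug dilutions. Inoculum was about 5×10^5 CFU/mL, incubated aerobically at 35° C. for 18-20 hr. MIC was the lowest concentration inhibiting visible growth.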

S. agalactiae ATCC 13813 = assay: Time-kill assay; format: cell-based, Streptococcus agalactiae; conditions: 2×, 4×, 8× MIC; 2, 6, 24 hr
[3] = tested on: E. coli ATCC 35218 (TEM-1 β-lactamase producer); assay: Broth microdilution MIC (time-kill study); format: cell-based, Escherichia coli
B. fragilis ATCC 25285 = assay: Broth microdilution MIC (time-kill study); format: cell-based, Bacteroides fragilis
S. pneumoniae ATCC 49619 = assay: Broth microdilution MIC (time-kill study); format: cell-based, Streptococcus pneumoniae
B. ovatus MMX 3503 = assay: Broth microdilution MIC (time-kill study); format: cell-based, Bacteroides ovatus
E. coli ATCC 35218 = assay: Time-kill assay; format: cell-based, Escherichia coli; conditions: 2×, 4×, 8× MIC; 2, 6, 24 hr
[4] = E. coli ATCC 25922, rifaximin selection 4X MIC, 32 μg/mL
[5] = E. coli ATCC 25922, rifaximin selection 8X MIC, 64 μg/mL
[6] = E. coli ATCC 35218, rifaximin selection 4X MIC, 32 μg/mL, estimated by counting a quarter of the plate
[7] = E. coli ATCC 35218, rifaximin selection 8X MIC, 64 μg/mL, estimated by counting a quarter of the plate
[8] = E. coli MMX 1312, rifaximin selection 4X MIC, 16 μg/mL
[9] = E. coli MMX 1312, rifaximin selection 8X MIC, 32 μg/mL
[10] = rifaximin selection 4X MIC, 1 μg/mL
[11] = rifaximin selection 8X MIC, 2 μg/mL
[12] = rifaximin selection 4X MIC, 0.5 μg/mL
[13] = rifaximin selection 8X MIC, 1 μg/mL
[14] = 30 Bacteroides fragilis clinical isolates

With `CO[C@H]1/C=C/O[C@@]2(C)Oc3c(C)c(O)c4c(O)c(c5c(nc6cc(C)ccn65)c4c3C2=O)NC(=O)/C(C)=C\C=C\[C@H](C)[C@H](O)[C@@H](C)[C@@H](O)[C@@H](C)[C@H](OC(C)=O)[C@@H]1C` [rifaximin] the MFC (Escherichia coli; E. coli ATCC 25922) was over 64 µg/mL, the “Average Count” value (Escherichia coli; [4]) was “TNTC” and the “Count 1” value (Escherichia coli; [4]) was “TNTC”. The “Count 2” value (Escherichia coli; [4]) was “TNTC”, the “Spontaneous Mutation Frequency” value (Escherichia coli; E. coli ATCC 25922, rifaximin selection 4X MIC, 32 μg/mL, based on estimated count of >500 average CFU) was >2.24 × 10^−8 and the “Average Count” value (Escherichia coli; [5]) was “TNTC”. For the same molecule, the “Count 1” value (Escherichia coli; [5]) was “TNTC”, the “Count 2” value (Escherichia coli; [5]) was “TNTC” and the “Spontaneous Mutation Frequency” value (Escherichia coli; E. coli ATCC 25922, rifaximin selection 8X MIC, 64 μg/mL, based on estimated count of >500 average CFU) was >2.24 × 10^−8. The MFC (Escherichia coli; E. coli ATCC 35218) was over 64 µg/mL, the “Spontaneous Mutation Frequency” value (Escherichia coli; E. coli ATCC 35218, rifaximin selection 4X MIC, 32 μg/mL) was 2.37 × 10^−8 and the “Average Count” value (Escherichia coli; [6]) was 688^2 CFU. The “Count 2” value (Escherichia coli; [6]) was 600^1 CFU, the “Spontaneous Mutation Frequency” value (Escherichia coli; E. coli ATCC 35218, rifaximin selection 8X MIC, 64 μg/mL) was 1.15 × 10^−8 and the “Average Count” value (Escherichia coli; [7]) was 332^1 CFU. For the same molecule, the “Count 1” value (Escherichia coli; [7]) was 360^1 CFU, the “Count 2” value (Escherichia coli; [7]) was 304^1 CFU and the MFC (Escherichia coli; E. coli MMX 1312) was over 32 µg/mL. For the same molecule, the “Average Count” value (Escherichia coli; [8]) was “TNTC”, the “Count 1” value (Escherichia coli; [8]) was “TNTC” and the “Count 2” value (Escherichia coli; [8]) was “TNTC”. The “Spontaneous Mutation Frequency” value (Escherichia coli; E. coli MMX 1312, rifaximin selection 4X MIC, 16 μg/mL, based on estimated count of >500 average CFU) was >2.06 × 10^−8, the “Average Count” value (Escherichia coli; [9]) was “TNTC” and the “Count 1” value (Escherichia coli; [9]) was “TNTC”. For the same molecule, the “Count 2” value (Escherichia coli; [9]) was “TNTC”, the “Spontaneous Mutation Frequency” value (Escherichia coli; E. coli MMX 1312, rifaximin selection 8X MIC, 32 μg/mL, based on estimated count of >500 average CFU) was >2.06 × 10^−8 and the MFC (S. agalactiae) was over 2 µg/mL. For the same molecule, the “Average Count” value (S. agalactiae; [10]) was 159 CFU, the “Count 1” value (S. agalactiae; [10]) was 180 CFU and the “Count 2” value (S. agalactiae; [10]) was 137 CFU. For the same molecule, the “Spontaneous Mutation Frequency” value (S. agalactiae; [10]) was 2.77 × 10^−8, the “Average Count” value (S. agalactiae; [11]) was 115 CFU and the “Count 1” value (S. agalactiae; [11]) was 110 CFU. The “Count 2” value (S. agalactiae; [11]) was 120 CFU, the “Spontaneous Mutation Frequency” value (S. agalactiae; [11]) was 2.00 × 10^−8 and the MFC (S. pyogenes) was over 1 µg/mL. For the same molecule, the “Average Count” value (S. pyogenes; [12]) was 83 CFU, the “Count 1” value (S. pyogenes; [12]) was 78 CFU and the “Count 2” value (S. pyogenes; [12]) was 87 CFU. The “Spontaneous Mutation Frequency” value (S. pyogenes; [12]) was 1.51 × 10^−8, the “Average Count” value (S. pyogenes; [13]) was 84 CFU and the “Count 1” value (S. pyogenes; [13]) was 78 CFU. The “Count 2” value (S. pyogenes; [13]) was 89 CFU, the “Spontaneous Mutation Frequency” value (S. pyogenes; [13]) was 1.53 × 10^−8 and the MFC (B. vulgatus) was over 1 µg/mL. The “Average Count” value (B. vulgatus; [12]) was 5 CFU, the “Count 1” value (B. vulgatus; [12]) was 6 CFU and the “Count 2” value (B. vulgatus; [12]) was 4 CFU. The “Spontaneous Mutation Frequency” value (B. vulgatus; [12]) was 8.70 × 10^−10, the “Average Count” value (B. vulgatus; [13]) was 4 CFU and the “Count 1” value (B. vulgatus; [13]) was 2 CFU. For the same molecule, the “Count 2” value (B. vulgatus; [13]) was 5 CFU, the “Spontaneous Mutation Frequency” value (B. vulgatus; [13]) was 6.96 × 10^−10 and the “Agar MIC” value ([1]; E. coli ATCC 25922) was over 4 µg/mL. For the same molecule, the “Agar MIC” value ([1]; E. coli ATCC 35218) was over 4 µg/mL, the “Agar MIC” value ([1]; E. coli MMX 1312) was 4 µg/mL and the “MIC values (agar dilution)” value ([1]; over evaluated E. coli isolates (range stated jointly with other groups)) was at least 4 µg/mL. The MIC50 (Bacteroides fragilis) was 0.25 µg/mL (≈ 0.318 µM), the MIC90 (Bacteroides fragilis) was 0.25 µg/mL (≈ 0.318 µM) and the “relative activity among drugs tested” value (Bacteroides fragilis) was “meropenem and rifaximin had similar activity”. The MIC50 (Bacteroides fragilis; [14]) was 0.25 µg/mL (≈ 0.318 µM), the MIC90 (Bacteroides fragilis; [14]) was 0.25 µg/mL (≈ 0.318 µM) and the Mode (Bacteroides fragilis; modal MIC, 30 Bacteroides fragilis clinical isolates) was 0.25 µg/mL. For the same molecule, the MIC ([2]; E. coli MMX 1312, selected on ceftriaxone 4X MIC, Colony A) was 3 µg/mL, the MIC ([2]; E. coli MMX 1312, selected on ceftriaxone 4X MIC, Colony B) was 8 µg/mL and the MIC ([2]; E. coli MMX 1312, selected on ceftriaxone 4X MIC, Colony C) was 8 µg/mL. The MIC ([2]; E. coli MMX 1312, selected on ceftriaxone 8X MIC, Colony A) was 3 µg/mL, the MIC ([2]; E. coli MMX 1312, selected on ceftriaxone 8X MIC, Colony B) was 3 µg/mL and the MIC ([2]; E. coli MMX 1312, selected on ceftriaxone 8X MIC, Colony C) was 3 µg/mL. It also gave an MIC ([2]; E. coli MMX 1312 Parent) of 8 µg/mL, an MIC ([2]; E. coli MMX 1312 Parent (Table 49)) of 8 µg/mL and an MIC ([2]; E. coli MMX 1312 mutant selected on meropenem 4X MIC, colony A) of 8 µg/mL. For the same molecule, the MIC ([2]; E. coli MMX 1312 mutant selected on meropenem 4X MIC, colony B) was 8 µg/mL, the MIC ([2]; E. coli MMX 1312 mutant selected on meropenem 4X MIC, colony C) was 8 µg/mL and the MIC ([2]; E. coli MMX 1312 mutant selected on meropenem 8X MIC, colony A) was 8 µg/mL. For the same molecule, the MIC ([2]; E. coli MMX 1312 mutant selected on meropenem 8X MIC, colony B) was 8 µg/mL, the MIC ([2]; E. coli MMX 1312 mutant selected on meropenem 8X MIC, colony C) was 4 µg/mL and the “broth microdilution MIC of selected colonies relative to parent strain” value ([2]; colonies selected at 4× and 8× the MIC) was “several-fold higher”. The “time-kill kinetics outcome (bactericidal = ≥3 log reduction in CFU per mL)” value (S. agalactiae ATCC 13813) was “bacteriostatic effect at 4× and 8× the MIC”, the MIC ([3]; E. coli ATCC 35218) was 4 µg/mL (≈ 5.09 µM) and the MIC ([3]; broth microdilution) was 4 µg/mL (≈ 5.09 µM). For the same molecule, the MIC (B. fragilis ATCC 25285; B. fragilis MMX 123 ATCC 25285) was 0.5 µg/mL (≈ 0.636 µM), the MIC (B. fragilis ATCC 25285; broth microdilution) was 0.05 µg/mL (≈ 0.0636 µM) and the MIC (S. pneumoniae ATCC 49619; S. pneumoniae ATCC 49619) was 0.06 µg/mL (≈ 0.0763 µM). The MIC (S. pneumoniae ATCC 49619; broth microdilution) was 0.06 µg/mL (≈ 0.0763 µM), the MIC (B. ovatus MMX 3503; B. ovatus MMX 3504 (so in the source)) was 2 µg/mL (≈ 2.54 µM) and the MIC (B. ovatus MMX 3503; broth microdilution) was 1 µg/mL (≈ 1.27 µM). For the same molecule, the “time-kill kinetics outcome (bactericidal = ≥3 log reduction in CFU per mL)” value (E. coli ATCC 35218) was “bacteriostatic at 8× the MIC with regrowth at 24 hr for both 2× and 4× the MIC”.
